Values joined by “and” are separate entries in the source; they are usually repeats but may differ in a detail not shown here. Identical values can stand only once. Like-named read-outs stand apart in the source and are kept apart here.

This note sets out measurements from patent EP0091528A1, “-N-(1-propyl-2-pyrrolidylmethyl)-2-methoxy-5-sulfamoyl benzamide and its use against some sorts of depression” (priority 1982, dated 1983).

The nature of data set [1]: Double-blind comparative clinical trial versus imipramine in depression. The class given is in vivo, humaine. Particulars: for tolérance tant clinique que biologique: 450 mg par jour (compound), 150 mg par jour (IMIPRAMINE). As to the method: En conséquence, un essai clinique comparatif en double aveugle a été mené mettant en oeuvre le composé selon l'invention et l'IMIPRAMINE, produit de référence indiscutable dans le traitement de certains états dépressifs.
Les posologies retenues ont été fixées : • . pour l'IMIPRAMINE en fonction des données acquises et de la posologie préconisée par le fabricant, c'est-à-dire : 150 mg par jour, dose atteinte progressivement en 5 jours; • . pour le composé selon l'invention, à partir des données recueillies par les études antérieures, c'est-à-dire : 450 mg par jour. Bien que cette posologie puisse, du fait de l'excellente tolérance du produit, être administrée d'emblée, pour se plier aux règles du double-aveugle et respecter le mode d'administration optimum pour l'IMIPRAMINE, cette dose n'a également été atteinte que le Sème jour après deux paliers successifs de : 150 et 300 mg par jour. Toutefois d'autres études permettent de penser que des doses plus faibles du composé selon l'invention aboutissent à des résultats similaires.
Ces doses ont été administrées pendant 28 jours consécutifs en mono- thérapie, dans toute la mesure du possible.
Pouvaient entrer dans l'étude, les sujets présentant une dépression authentique c'est-à-dire atteignant le score de 36 à la version simplifiée à 17 items de l'échelle de Hamilton.
La comparaison entre les deux produits a porté sur l'efficacité thérapeutique et sur la tolérance, 34 cas ayant été analysés. Pour établir cette comparaison, le protocole prévoyait trois bilans : • . avant le début du traitement (JO) • . au 10ème jour (J10) • . au 28ème jour (J28)
Chacun de ces bilans comportait obligatoirement : • . une B.P.R.S. • une échelle de Hamilton (26 items) • une appréciation par l'expert de 1"'intensité du syndrome dépressif" • une recherche des troubles somatiques associés à l'état dépressif.
De plus, à JO et à J28, il a été pratiqué une auto-appréciation de son état par le malade (S.D.S.) et un bilan biologique standard.
Enfin, en fin de traitement, il a été convenu d'exprimer une impression subjective globale sur l'intérêt du traitement pour chaque observation.

Data set [2] in a line: Acute toxicity, LD50 in mice by different routes. The class given is in vivo. Particulars: souris; for LD50: mouse, in vivo, read-out: DL 50 (the source's name). An excerpt: Au plan toxicologique, la détermination des DL 50 des deux produits administrés chez la souris par différentes voies ne révèle aucune différence majeure, le Sulpiride étant toutefois un peu moins toxique par voie buccale.

The test system of data set [3] is récepteurs dopamine du centre du vomissement. Nature of the data set: Antiemetic power in the dog (apomorphine-induced emesis). The following applies: vomiting induced by apomorphine. The class given is in vivo. The text has this: D'une façon générale, ces dérivés benzamides interfèrent dans les mécanismes dopaminergiques du système nerveux. Leurs effets bloquants sur les récepteurs dopamine centraux leur confèrent des propriétés neuroleptiques. Leur effet bloquant sur les récepteurs dopamine du centre du vomissement se traduit par un puissant antagonisme à l'égard de l'effet émétisant de certains agonistes dopaminergiques, tels que l'apomorphine et les alcaloïdes de l'ergot de seigle.
Au plan pharmacologique, les interférences des deux composés dans le système dopamine ont été comparées par différents tests adaptés à la mise en évidence des effets antagonistes et agonistes. Il en résulte que : • 1) - le composé selon l'invention et le Sulpiride sont de très puissants antagonistes dans le test de l'emesis chez le chien où les vomissements sont provoqués par l'agoniste apomorphine.
Les valeurs des DE 50 montrent que les activités des deux composés sont équivalentes.

The subject of data set [4] is récepteurs dopamine centraux. Nature of the data set: Inhibition of apomorphine-induced rearing (climbing) movement in mice. The class given is in vivo. The following applies: souris, I.P., apomorphine 1 mg/kg S.C. The method, then: 2) - Les deux composés ne se distinguent pas non plus quand leur propriété antagoniste dopaminergique centrale est jugée par exemple d'après l'inhibition qu'ils provoquent du mouvement de redressement induit chez la souris par l'apomorphine (1 mg/kg S.C.).
Les doses inhibitrices 50 de ce mouvement sont voisines pour les deux composés, respectivement : […]

Data set [5] relates to stéréotypies induites chez le Rat par l'apomorphine (agoniste direct). Nature of the data set: Potentiation of apomorphine-induced stereotypies in the rat. It is filed as in vivo. Particulars: for DE50 vis-à-vis de l'apomorphine: Bliss method, two trials not named. The method, then: (§1) A cet effet, le composé de l'invention a été étudié vis-à-vis de la potentialisation des stéréotypies induites chez le Rat par deux agonistes dopaminergiques, l'apomorphine (agoniste direct) et la d-amphétamine (agoniste indirect).
(§2) Dans les deux essais, la dose d'agoniste est choisie telle qu'elle n'entraîne pas, chez tous les animaux d'expérience, l'apparition de mouvements stéréotypés de la sphère buccale de type léchage ou mâchonnement (Apomorphine : 0,250 mg.kg^-1 S.C. - d-amphétamine : 3 mg.kg^-1 I.P.).
(§3) L'observation de ce comportement stéréotypé chez un plus grand nombre d'animaux consécutif à l'administration de doses croissantes du composé de l'invention, injectées par voie I.P. 30 minutes avant l'agoniste, traduit un renforcement dopaminergique.
(§4) Les DE50 déterminées par la méthode de Bliss assortie des limites de confiance à 95% sont de 10,8 et 8,9 mg.kg.^-1 I.P. vis-à-vis de l'apomorphine et 1,4 et 2,6 mg.kg^-1 vis-à-vis de la d-amphétamine.

The test system of data set [6] is stéréotypies induites chez le Rat par la d-amphétamine (agoniste indirect). Put plainly: Potentiation of d-amphetamine-induced stereotypies in the rat. The class given is in vivo. The following applies: for DE50 vis-à-vis de la d-amphétamine: Bliss method, two trials not named. The method, then:
as §1, §2, §3, §4

Setting [7] is: Essai I, 4 mg.kg^-1 I.P. 30 min before Apomorphine 0,250 mg.kg^-1 S.C.
Where [8] appears, read: Essai I, 8 mg.kg^-1 I.P. 30 min before Apomorphine 0,250 mg.kg^-1 S.C.
Setting [9] is: Essai I, 16 mg.kg^-1 I.P. 30 min before Apomorphine 0,250 mg.kg^-1 S.C.
Where [10] appears, read: Essai I, 2 mg.kg^-1 I.P. 30 min before d-Amphétamine 3 mg.kg^-1 I.P.
The mark [11] stands for this setting: Essai I, 4 mg.kg^-1 I.P. 30 min before d-Amphétamine 3 mg.kg^-1 I.P.
Where [12] appears, read: Essai I, 8 mg.kg^-1 I.P. 30 min before d-Amphétamine 3 mg.kg^-1 I.P.
Where [13] appears, read: Essai II, 4 mg.kg^-1 I.P. 30 min before Apomorphine 0,250 mg.kg^-1 S.C.
Where [14] appears, read: Essai II, 8 mg.kg^-1 I.P. 30 min before Apomorphine 0,250 mg.kg^-1 S.C.
Where [15] appears, read: Essai II, 16 mg.kg^-1 I.P. 30 min before Apomorphine 0,250 mg.kg^-1 S.C.
The mark [16] stands for this setting: Essai II, 1 mg.kg^-1 I.P. 30 min before d-Amphétamine 3 mg.kg^-1 I.P.
The mark [17] stands for this setting: Essai II, 4 mg.kg^-1 I.P. 30 min before d-Amphétamine 3 mg.kg^-1 I.P.
Where [18] appears, read: Essai II, 16 mg.kg^-1 I.P. 30 min before d-Amphétamine 3 mg.kg^-1 I.P.

Turning to `CN(C)CCCN1c2ccccc2CCc2ccccc21` [IMIPRAMINE, reference compound], the “tolérance tant clinique que biologique” value in data set [1] (28 days) is listed as “troubles de la série anticholinergique nettement plus importants et plus sévères”.

With `CCN1CCCC1CNC(=O)c1cc(S(N)(=O)=O)ccc1OC` (stereo not shown) [Sulpiride, N-(1-éthyl-2-pyrrolidinyl-méthyl)-2-méthoxy-5-sulfamoyl benzamide, reference compound], the LD50 in data set [2] (ip, I.P.) is 210 mg/kg; in data set [2] (iv, I.V.) it was 43.5 to 44 mg/kg; in data set [2] (po, P.O.) it was 1800 to 2890 mg/kg; in data set [2] (sc, S.C.), 372 mg/kg. Also, the “Pouvoir antiémétique chez le chien DE 50 S.C.” value in data set [3] was 3,5-4,8 γ/kg. In addition, the “doses inhibitrices 50 du mouvement de redressement” value in data set [4] is recorded as 22 mg/kg I.P. The “% d'activité” value came to 15% in data set [5] (setting [7]); 31% in data set [5] (setting [8]); 15% in data set [5] (setting [9]); 6% in data set [6] (setting [10]); 13% in data set [6] (setting [11]); 6% in data set [6] (setting [12]). Moreover, the “Nombre d'animaux positifs/16” value in data set [5] (setting [7]) worked out at 5; in data set [5] (setting [8]) it was 7; in data set [5] (setting [9]) it was 5; in data set [6] (setting [10]) it was 1; in data set [6] (setting [11]), 2; in data set [6] (setting [12]), 1. Moreover, the “DE50 mg.kg^-1 I.P. base” value in data set [5] (Essai I, I.P., base, Apomorphine 0,250 mg.kg^-1 S.C., 95% confidence limits in brackets) was “inactif”; in data set [6] (Essai I, I.P., base, d-Amphétamine 3 mg.kg^-1 I.P., 95% confidence limits in brackets), “inactif”. Besides, the “DE50 vis-à-vis de l'apomorphine” value in data set [5] (I.P.) is “inactif”. Moreover, the “DE50 vis-à-vis de la d-amphétamine” value in data set [6] is recorded as “inactif”.

“N-(1-propyl-2-pyrrolidylméthyl)-2-méthoxy-5-sulfamoyl benzamide [Composé selon l'invention]”: the “DL 50” value is 181 to 203 mg/kg in data set [2] (I.P.), 51,7-52,6 mg/kg in data set [2] (I.V.), 1411 to 1423 mg/kg in data set [2] (P.O.) and 337 to 363 mg/kg in data set [2] (S.C.). The “Pouvoir antiémétique chez le chien DE 50 S.C.” value in data set [3] was 4,1 γ/kg. In data set [4], the “doses inhibitrices 50 du mouvement de redressement” value turned out to be 32 mg/kg I.P. Further, the “% d'activité” value in data set [5] (setting [7]) was 23%; in data set [5] (setting [8]) it was 46%; in data set [5] (setting [9]), 69%; in data set [5] (setting [13]) it was 7%; in data set [5] (setting [14]), 33%; in data set [5] (setting [15]), 67%. In addition, the “% d'activité” value in data set [6] (setting [10]) stood at 38%; in data set [6] (setting [11]), 69%; in data set [6] (setting [12]) it was 88%; in data set [6] (setting [16]) it was 38%; in data set [6] (setting [17]), 81%; in data set [6] (setting [18]), 94%. For the same compound, the “Nombre d'animaux positifs/16” value in data set [5] (setting [7]) is reported as 6; in data set [5] (setting [8]) it was 9; in data set [5] (setting [9]), 12; in data set [5] (setting [13]), 2; in data set [5] (setting [14]), 6; in data set [5] (setting [15]), 11. Moreover, the “Nombre d'animaux positifs/16” value was found to be 6 in data set [6] (setting [10]); 11 in data set [6] (setting [11]); 14 in data set [6] (setting [12]); 6 in data set [6] (setting [16]); 13 in data set [6] (setting [17]); 15 in data set [6] (setting [18]). The “DE50 vis-à-vis de l'apomorphine” value in data set [5] (I.P., listed as composé de l'invention) is 10,8 mg.kg^-1 and 8,9 mg.kg^-1. Moreover, the “DE50 vis-à-vis de la d-amphétamine” value in data set [6] (listed as composé de l'invention) was 1,4 mg.kg^-1 and 2,6 mg.kg^-1. In addition, in data set [1] (28 days), the “tolérance tant clinique que biologique” value is “moindre fréquence de l'apparition ou de l'aggravation d'une symptomatologie somatique”. In addition, in data set [1] (compared with IMIPRAMINE 150 mg par jour, compound 450 mg par jour, 28 days), the efficacité entry is listed as “au moins égale à celle de l'IMIPRAMINE”. The “rapidité d'action sur l'état dépressif” value in data set [1] (compared with IMIPRAMINE, J10 versus J28) is on record as “agit plus rapidement sur l'état dépressif que l'IMIPRAMINE”.
